Assay results from patent US12090172B2, “Suicide gene therapeutic agent for brain tumors using pluripotent stem cell” (KEIO UNIVERSITY, priority 2017, dated 2024).

Assays:
human glioma cells (U87) [1] = assay: Suicide gene cell therapy with TSCs (1) expressing yCD-UPRT, mixture transplantation model; type: in vivo; settings: control group 2: TSC (−)/5FC (+) 5 mg/day, only U87 transplanted
human glioma cells (U87) [2] = assay: Suicide gene cell therapy with TSCs (1) expressing yCD-UPRT, transplantation model after tumor formation; type: in vivo; settings: control group 2: TSC (−)/5FC (+) 5 mg/day, only U87 transplanted
Method: First, 1×10^4 cells/2 μl U87-ffLuc was transplanted to the right striate body (2 mm away from the anterior fontanel to the right and 3 mm deep from the brain surface) of each T cell-deficient mouse (female BALB/c nude mouse, 20 g, 6 w) subjected to general anesthesia, and 1×10^6 cells/2 μl TSCs expressing yCD-UPRT (yCD-UPRT is introduced into NS/PCs with the lentiviral vector) were stereotactically transplanted to the same site 5 days later. The take of tumor cells was confirmed 2 days later with an IVIS, that is, an in vivo imaging system, and 500 μl of 5-FC (10 mg/ml) was then intraperitoneally administered to a treated group once per day for 2 weeks (TSC (+)/5-FC (+) 5 mg/day, n=9). Next, 500 μl of 1 M PBS was administered to a control group 1 for 2 weeks in the same way (control group 1: TSC (+)/5-FC (−), n=9). A group to which only U87-ffLuc was transplanted was also generated as another control group, and 500 μl of 5-FC (10 mg/ml) was intraperitoneally administered to this once per day for 2 weeks (control group 2: TSC (−)/5-FC (+) 5 mg/day, n=3). […]
(§1) The survival analysis was performed while the luminescence imaging analysis (IVIS) of tumors was performed chronologically. […]

human glioma cells (U87) [3] = assay: Suicide gene cell therapy with TSCs expressing yCD-UPRT with CRISPR/Cas9, transplantation model after tumor formation; type: in vivo, mouse; settings: control group 2: TSC (−)/5FC (+), only U87 transplanted
Method: First, 1×10^4 cells/2 μl U87-ffLuc was transplanted to the right striate body (2 mm away from the anterior fontanel to the right and 3 mm deep from the brain surface) of each T cell-deficient mouse (female BALB/c nude mouse, 20 g, 6 w) subjected to general anesthesia, and 1×10^6 cells/2 μl TSCs expressing yCD-UPRT (yCD-UPRT is introduced into iPS cells with CRISPR/Cas9) were stereotactically transplanted to the same site 5 days later. The take of tumor cells was confirmed 2 days later with an IVIS, that is, an in vivo imaging system, and further 2 days later, 500 μl of 5-FC (10 mg/ml) was intraperitoneally administered to a treated group once per day for 2 weeks (TSC (+)/5-FC (+), n=8). Then, 500 μl of 1 M PBS was administered to a control group 1 for 2 weeks in the same way (control group 1: TSC/5-FC (−), n=7). A group to which only U87-ffLuc was transplanted was also generated as another control group, and 500 μl of 5-FC (10 mg/ml) was intraperitoneally administered to this once per day for 2 weeks (control group 2: TSC (−)/5-FC (+), n=3).
A method for evaluating tumors, the analysis of survival curves and the like were all performed in the same way as the above. […]
as §1

human glioma cells (U87) [4] = assay: Suicide gene cell therapy with Tet-induced TSCs (3) expressing yCD-UPRT, mixture transplantation model; type: in vivo, mouse; settings: control group 2: TSC (−)/5-FC (+)/Dox (+), only U87-ffLuc transplanted
Method: First, 1×10^5 cells/2 μl U87-ffLuc and 5×10^5 cells/2 μl TSCs (3) (Tet-induced yCD-UPRT was introduced into iPS cells with the lentiviral vector) were mixed and stereotactically transplanted to the right striate body (2 mm away from the anterior fontanel to the right and 3 mm deep from the brain surface) of each T cell-deficient mouse (female BALB/c nude mouse, 20 g, 6 w) subjected to general anesthesia. Then, 500 μl of 5-FC (10 mg/ml) was intraperitoneally administered once per day for 2 weeks from the next day (treated group 1: TSC (+)/5-FC (+)/Dox (+), n=7). Next, 500 μl of 1 M PBS was administered to a control group 1 for 2 weeks in the same way (control group 1: TSC (+)/[…], n=9). A group to which only U87-ffLuc was transplanted was also generated as another control group, and 500 μl of 5-FC (10 mg/ml) was intraperitoneally administered to this once per day for 2 weeks (control group 2: TSC (−)/5-FC (+)/Dox (+), n=4). Feed containing 200 mg/kg of Dox was orally ingested. A method for evaluating tumors, the analysis of survival curves and the like were all performed in the same way as the above. […]
Survival analysis was performed, while the luminescence imaging analysis (IVIS) of the tumors was performed chronologically. […]

[5] = system: NS/PCs expressing yCD-UPRT (TSCs (1), lentiviral vector); assay: Cell death induction by 5-FC added to the medium; type: cell-based, human; settings: 1 μg/ml 5-FC added to the medium
From the text: Secondary to quaternary NS/PCs differentiation-induced from the human iPS cells were collected by a centrifuge, disassembled into single cells using TrypLE Select, suspended in NS medium, inoculated into a low adhesive flask at a concentration of 1×10^5 cells/ml, infected with a CSIV-EF-yCD-UPRT-IRES2-hKO1 lentiviral vector at an MOI (multiplicity of infection) of 1 to 2 and cultured for 7 days with the medium replaced every 3 to 4 days. The obtained NS/PCs were infected with the CSIV-EF-yCD-UPRT-IRES2-hKO1 lentiviral vector at an MOI of 1 to 2 in the same way again to prepare therapeutic stem cells (TSCs (1)), that is, NS/PCs expressing yCD-UPRT. It was confirmed that the cell death of the NS/PCs expressing yCD-UPRT was induced by adding 1 μg/ml 5-FC (fluorocytosine) to the medium.

[6] = system: NS/PCs expressing yCD-UPRT (TSCs (2), GAPDH gene region, CRISPR/Cas9); assay: Cell death induction by 5-FC added to the medium; type: cell-based, human; settings: 1 μg/ml 5-FC added to the medium
Method: Differentiation induction from iPS cells in which yCD-UPRT was incorporated into the GAPDH gene region to NS/PCs was performed to obtain secondary to quinary NS/PCs (TSCs (2)). Culture was performed with 2 μg/ml blasticidin S always added to the medium. It was confirmed that the cell death of the NS/PCs expressing yCD-UPRT was induced by adding 1 μg/ml 5-FC to the medium.

[7] = system: Tet-induced iPS cells expressing yCD-UPRT; assay: Cell death induction by Dox and 5-FC added to the medium; type: cell-based, human; settings: 1 μg/ml doxycycline (Dox) and 1 μg/ml 5-FC added to the medium
Method: Human iPS cells were infected with the CSIV-yCD-UPRT-TRE-EF-KT lentiviral vector at an MOI of around 15 and cultured, the clones were then sorted with a cell sorter to obtain an iPS cell line expressing hKO1 steadily and highly. It was confirmed that the cell death of the Tet-induced iPS cells expressing yCD-UPRT was induced by adding 1 μg/ml doxycycline (Dox) and 1 μg/ml 5-FC to the medium.

[8] = system: Tet-induced NS/PCs expressing yCD-UPRT; assay: as above; type: cell-based, human; settings: 1 μg/ml Dox and 1 μg/ml 5-FC added to the medium
Method: Differentiation induction from the Tet-induced iPS cells expressing yCD-UPRT to NS/PCs was performed to obtain secondary and tertiary Tet-induced NS/PCs expressing yCD-UPRT.

## Nc1nc(=O)[nH]cc1F [5-FC, 5-fluorocytosine]
Human glioma cells (U87) [1]
  average survival period: 21 days
Human glioma cells (U87) [2]
  average survival period: 21 days
Human glioma cells (U87) [3]
  average survival period: 21 days
Human glioma cells (U87) [4]
  average survival period: 19 days
[5]
  cell death: induced
[6]
  cell death: induced
[7]
  cell death: induced
[8]
  cell death: induced
